This is an account of results in patent US20190185479A1, “BICYCLIC NITROGENATED HETEROCYCLIC COMPOUND” (MITSUBISHI TANABE PHARMA CORPORATION, priority 2016, published 2019).

Bounds are passed on as bounds.

One test addresses T1, hPDE4D (Homo sapiens, UniProt Q08499).
T1 construct: purchased SB Drug Discovery
Kind of test: PDE7 selectivity test (Ki value), Experimental Example 2: hPDE4D. As to conditions: Ki from IC50 by Cheng-Prusoff, read-out: PDE inhibition constant Ki, PDE4. The format is biochemical. How it is done: (§1) hPDE1A, hPDE2A, hPDE3A, hPDE4D, hPDE5A, and hPDE8B were purchased from SB Drug Discovery. hPDE7B was isolated by the same method as [Method for preparing samples 1], and hPDE9A, hPDE10A, and hPDE11A were isolated by the same method as hPDE7B, i.e., isolated from COS-7 cells transfected with plasmids encoding each PDE. PDE6 was purified and isolated from bovine retina (bovine PDE6).
(§2) Prior to the calculation of Ki value, Km value of each PDE against cAMP or cGMP was calculated. Each PDE diluted with an assay buffer so that it would have an appropriate enzyme activity, and six or more concentrations of cAMP or cGMP were reacted at room temperature for 60 minutes. Regarding PDE using cAMP as a substrate, PDELight (trademark) HTS cAMP phosphodiesterase Kit (Lonza) was used to measure a degradation product, 5′-AMP. Also, regarding PDE using cGMP as a substrate, […] of perchloric acid was added to the mixture to stop the reaction, and the resulting mixture was subjected to LC-MS/MS to measure the residual cGMP concentration. The amount of degraded substrate in each substrate concentration was calculated, the concentration of the added substrate was plotted on the horizontal axis, the amount of degraded substrate was plotted on the vertical axis, and Km value was calculated by non-linear regression on the basis of Michaelis-Menten equation. Km value (substrate) of each PDE was hPDE1A: 4.3 (cGMP), hPDE2A: 36 (cAMP), hPDE3A: 0.11 (cAMP), hPDE4D: 0.90 (cAMP), hPDE5A: 3.9 (cGMP), bovine PDE6:9.8 (cGMP), hPDE7B: 0.015 (cAMP), hPDE8B: 0.63 (cAMP), hPDE9A: 0.0037 (cGMP), hPDE10A: 0.051 (cAMP), and hPDE11A: 1.4 (cAMP) μmol/L, respectively.
(§3) Next, PDE inhibition assay of a compound was carried out using each PDE. The PDE inhibition assay was basically carried out by the same enzyme reaction method as [Assay procedure 1], and the degraded amount of cAMP or cGMP was measured by the same method as [Assay procedure 2]. In the assay, a concentration approximated to Km value of each PDE against cAMP or cGMP was used as a substrate concentration. Meanwhile, regarding hPDE5A, hPDE8B, and hPDE9A, IMAP (trademark) FP Phosphodiesterase Evaluation Assay Kit (Molecular Devices) was used to measure the degradation of FAM-cAMP or FAM-cGMP by fluorescence depolarization technique.
(§4) Each compound was evaluated at six or more concentrations with common ratio 10. Each inhibition rate was calculated according to <Method for data calculation 1>, and then each IC50 value was calculated by sigmoid regression. The resulting IC50 value was used in the following Cheng-Prusoff equation to calculate each Ki value. Ki=IC50/(1+[S]/Km), wherein [S] represents a substrate concentration used

Another test concerns the target T2, bovine PDE6 (Bos taurus, UniProt P11541+P23439).
T2 construct: PDE6 was purified and isolated from bovine retina (bovine PDE6); from tissue; host or cells: bovine retina
T2 sequence (P11541 2-856 limits assumed): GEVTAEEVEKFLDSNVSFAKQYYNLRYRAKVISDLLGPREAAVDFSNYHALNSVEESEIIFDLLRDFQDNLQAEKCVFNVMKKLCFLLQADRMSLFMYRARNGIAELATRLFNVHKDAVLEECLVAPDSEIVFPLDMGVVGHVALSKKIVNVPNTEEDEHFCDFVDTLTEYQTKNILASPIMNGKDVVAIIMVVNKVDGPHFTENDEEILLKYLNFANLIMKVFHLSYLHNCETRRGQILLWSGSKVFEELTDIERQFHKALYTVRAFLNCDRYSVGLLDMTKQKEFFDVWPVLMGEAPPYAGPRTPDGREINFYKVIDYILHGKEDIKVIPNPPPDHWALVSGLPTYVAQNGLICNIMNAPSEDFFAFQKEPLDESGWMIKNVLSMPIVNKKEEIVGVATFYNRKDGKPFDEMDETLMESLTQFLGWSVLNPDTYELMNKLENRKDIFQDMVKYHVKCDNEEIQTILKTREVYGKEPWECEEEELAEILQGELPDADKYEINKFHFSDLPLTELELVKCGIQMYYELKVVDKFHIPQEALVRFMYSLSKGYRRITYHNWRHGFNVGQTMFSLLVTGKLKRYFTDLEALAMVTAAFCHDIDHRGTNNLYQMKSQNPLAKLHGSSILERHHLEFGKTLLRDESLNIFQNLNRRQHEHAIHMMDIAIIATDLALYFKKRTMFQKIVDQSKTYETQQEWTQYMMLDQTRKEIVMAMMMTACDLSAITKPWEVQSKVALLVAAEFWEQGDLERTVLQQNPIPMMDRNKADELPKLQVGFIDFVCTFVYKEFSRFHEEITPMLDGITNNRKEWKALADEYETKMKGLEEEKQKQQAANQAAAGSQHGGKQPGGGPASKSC
T2 sequence (P23439 2-850 limits assumed): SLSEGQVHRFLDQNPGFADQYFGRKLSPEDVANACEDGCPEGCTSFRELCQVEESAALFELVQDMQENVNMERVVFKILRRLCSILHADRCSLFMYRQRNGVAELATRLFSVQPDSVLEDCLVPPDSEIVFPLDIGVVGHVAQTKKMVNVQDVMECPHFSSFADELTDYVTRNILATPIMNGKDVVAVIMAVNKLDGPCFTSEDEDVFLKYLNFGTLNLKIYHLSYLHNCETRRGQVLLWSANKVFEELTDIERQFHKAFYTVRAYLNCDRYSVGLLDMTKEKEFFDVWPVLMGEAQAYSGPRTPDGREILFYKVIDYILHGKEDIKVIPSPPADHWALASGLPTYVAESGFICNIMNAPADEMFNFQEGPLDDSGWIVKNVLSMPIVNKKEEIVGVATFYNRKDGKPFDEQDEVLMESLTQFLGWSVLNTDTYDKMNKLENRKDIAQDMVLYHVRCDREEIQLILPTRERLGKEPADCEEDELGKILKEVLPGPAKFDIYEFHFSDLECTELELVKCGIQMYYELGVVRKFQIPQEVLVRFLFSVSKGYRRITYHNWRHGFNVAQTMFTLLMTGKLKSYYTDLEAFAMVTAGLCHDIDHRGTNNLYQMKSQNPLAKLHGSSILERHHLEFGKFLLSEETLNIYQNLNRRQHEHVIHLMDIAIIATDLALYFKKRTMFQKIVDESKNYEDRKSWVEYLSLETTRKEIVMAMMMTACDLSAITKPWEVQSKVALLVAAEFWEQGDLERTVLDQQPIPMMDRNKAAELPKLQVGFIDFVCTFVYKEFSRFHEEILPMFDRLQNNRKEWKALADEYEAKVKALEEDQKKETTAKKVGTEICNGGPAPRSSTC
Kind of test: PDE7 selectivity test (Ki value), Experimental Example 2: bovine PDE6. The format is biochemical. As to conditions: Ki from IC50 by Cheng-Prusoff, read-out: PDE inhibition constant Ki, PDE6. How it is done:
as §1, §2, §3, §4

As a reminder, the Ki is the dissociation constant of the complex between target and ligand, obtained from inhibition or displacement.

T1 sequence (Q08499 whole entry): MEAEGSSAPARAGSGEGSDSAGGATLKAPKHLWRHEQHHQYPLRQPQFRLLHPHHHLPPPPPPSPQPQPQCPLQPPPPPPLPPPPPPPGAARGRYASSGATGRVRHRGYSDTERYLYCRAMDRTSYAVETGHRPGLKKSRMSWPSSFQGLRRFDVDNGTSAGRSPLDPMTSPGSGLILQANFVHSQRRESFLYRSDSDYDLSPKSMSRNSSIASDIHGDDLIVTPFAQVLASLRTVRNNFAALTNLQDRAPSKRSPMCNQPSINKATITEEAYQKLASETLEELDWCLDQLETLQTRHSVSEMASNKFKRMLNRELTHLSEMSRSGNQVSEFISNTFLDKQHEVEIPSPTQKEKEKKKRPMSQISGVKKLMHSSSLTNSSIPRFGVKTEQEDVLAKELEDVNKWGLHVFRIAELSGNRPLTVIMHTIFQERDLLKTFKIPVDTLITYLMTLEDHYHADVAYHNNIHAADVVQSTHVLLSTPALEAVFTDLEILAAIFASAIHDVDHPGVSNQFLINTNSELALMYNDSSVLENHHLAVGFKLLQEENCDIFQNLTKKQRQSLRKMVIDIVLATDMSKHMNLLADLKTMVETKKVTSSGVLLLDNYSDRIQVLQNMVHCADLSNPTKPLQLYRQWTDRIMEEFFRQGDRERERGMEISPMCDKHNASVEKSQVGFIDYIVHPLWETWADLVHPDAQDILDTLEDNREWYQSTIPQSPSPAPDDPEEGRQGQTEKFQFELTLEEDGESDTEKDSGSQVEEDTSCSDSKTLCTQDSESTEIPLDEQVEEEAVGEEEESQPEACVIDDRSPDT

On to `CC1CCCCC1n1nnc2c(N)ncnc21` (single isomer, unassigned) [Example 191, 3-(cis-2-methylcyclohexyl)-3H-[1,2,3]triazolo[4,5-d]pyrimidin-7-amine], for which the inhibition constant Ki on hPDE4D is 4.2 µM; at bovine PDE6, over 49 µM.
With `Nc1ncnc2c1nnn2C1CCCCC1` [Example 3, 3-cyclohexyl-3H-[1,2,3]triazolo[4,5-d]pyrimidin-7-amine], the Ki on hPDE4D was 4.4 µM; at bovine PDE6, over 49 µM.
The like results for `Cc1nc(N)c2nnn(C3CCCCC3)c2n1` [Example 4] were, in that order, 0.22 µM and over 4.9 µM.
`Nc1nccn2c(C3CCCCC3)nnc12` [Example 141, 3-cyclohexyl[1,2,4]triazolo[4,3-a]pyrazin-8-amine]: the Ki at hPDE4D was over 4.8 µM; on bovine PDE6 it was over 4.9 µM.
For `C[C@@H]1CCC[C@H](c2nnc3c(N)nccn23)C1` [Example 204, 3-[(1S,3R)-3-methylcyclohexyl][1,2,4]triazolo[4,3-a]pyrazin-8-amine] the same measures were 1.2 µM and over 49 µM.
